The values below come from US12421210B2, “Fused bicyclic heterocycles as therapeutic agents” (NEW YORK UNIVERSITY, priority 2018, dated 2025).

Structures are written as SMILES.

Sequence of human NAMPT enzyme (His-hNAMPT) (P43490 whole entry): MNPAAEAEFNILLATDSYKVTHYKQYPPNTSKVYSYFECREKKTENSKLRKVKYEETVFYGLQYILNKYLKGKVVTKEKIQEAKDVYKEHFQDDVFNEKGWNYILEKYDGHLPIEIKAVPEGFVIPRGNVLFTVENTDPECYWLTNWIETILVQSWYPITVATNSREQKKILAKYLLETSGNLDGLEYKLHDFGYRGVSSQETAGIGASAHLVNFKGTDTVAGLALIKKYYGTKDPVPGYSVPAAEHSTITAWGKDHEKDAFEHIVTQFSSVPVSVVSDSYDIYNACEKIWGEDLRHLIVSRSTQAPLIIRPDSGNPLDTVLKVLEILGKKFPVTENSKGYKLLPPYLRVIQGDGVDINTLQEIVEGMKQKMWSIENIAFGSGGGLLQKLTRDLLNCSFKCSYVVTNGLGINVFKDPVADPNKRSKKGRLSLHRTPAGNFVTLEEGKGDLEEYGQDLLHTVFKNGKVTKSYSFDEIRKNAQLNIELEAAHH

One assay has as its target human NAMPT enzyme (His-hNAMPT) (Homo sapiens (Human), UniProt P43490). The assay is described as follows: NAMPT enzymatic inhibition assay (fluorescence, NADH product). Type of assay: biochemical. The note with it: [BPS]; read-out: NAMPT IC50 (μM) [BPS]. The protocol:
The compounds were then diluted 20 fold in an intermediate dilution to 5% DMSO and water. Finally 10 μL of each compound was added to the assay plate, in duplicate, with highest concentration at 30 μM and the lowest at 0.001 μM in a final volume of 50 μL and 1% DMSO concentration. Each assay also tested, in parallel, two reference compounds, FK866 and GMX1778, with highest concentration at 10 μM and lowest at 0.0003 μM. 200 ng of human NAMPT enzyme (His-hNAMPT obtained from E. coli expression system) diluted in […] (tris-buffered saline-Polysorbate 20) 1× was added to each well in a volume of 10 μL and the compounds were incubated with the enzyme at room temperature for 20 minutes. After the incubation, 30 μL of master mixture were added to each well. The master mixture contained: 50 mM Tris-HCl, pH 8.0, 12.5 mM MgCl2, 20 μM nicotinamide, 40 μM phosphoribosyl pyrophosphate (PRPP), 20 μM adenosine triphosphate (ATP), 30 μg/mL of alcohol dehydrogenase, 10 μg/mL of NMNAT, 1.5% alcohol, 1 mM dithiothreitol (DTT), 0.02% bovine serum albumin (BSA), 0.01% Tween 20. The reaction was performed at 30° C. for 60 minutes. Fluorescence intensity was measured at an excitation of 340 nm and an emission of 460 nm using a Tecan Infinite M1000 microplate reader. The fluorescence values indicated increase of NADH product.
Enzyme activity assay was performed in duplicate at each concentration. The fluorescence data was analyzed and compared. In the absence of the compound, the intensity (Ce) in each data set was defined as 100% activity. In the absence of enzyme, the intensity (C0) in each data set was defined as 0% activity. The percent activity in the presence of each compound was calculated according to the following equation: % activity=(C−C0)/(Ce−C0), where C is the fluorescence in the presence of the compound.
The % activity vs. compound concentrations were then plotted using non-linear regression analysis of Sigmoidal dose-response curve generated with the equation Y=B+(T−B)/1+10^((Log EC50-X)×Hill Slope), where Y is percent activity, B is minimum percent activity, T is maximum percent activity, X is logarithm of compound and Hill Slope=slope factor or Hill coefficient.
For the compound `Nc1ccc(/C=C/C(=O)NCC[C@@H]2[C@H]3CN(C(=O)N4CCOCC4)C[C@@H]23)cn1` [Example 29, (E)-3-(6-aminopyridin-3-yl)-N-(2-((1R,5S,6s)-3-(morpholine-4-carbonyl)-3-azabicyclo[3.1.0]hexan-6-yl)ethyl)acrylamide], the IC50 – broadly, the concentration that gives 50% inhibition – lay in the range of 0.01 to 0.49 µM.

Turning to `O=C(NCC[C@@H]1[C@H]2CN(C(=O)c3ccccc3)C[C@@H]12)c1cc2ccncc2o1` [Example 30, N-(2-((1R,5S,6s)-3-benzoyl-3-azabicyclo[3.1.0]hexan-6-yl)ethyl)furo[2,3-c]pyridine-2-carboxamide], the IC50 lay within 0.01 to 0.49 µM. Still for that read-out and setting: to `Nc1ccc(/C=C/C(=O)NCC[C@@H]2[C@H]3CN(C(=O)Nc4ccccc4)C[C@@H]23)cn1` [Example 31, (1R,5S,6s)-6-(2-((E)-3-(6-aminopyridin-3-yl)acrylamido)ethyl)-N-phenyl-3-azabicyclo[3.1.0]hexane-3-carboxamide] belongs 0.01 to 0.49 µM; to `Nc1ccc(/C=C/C(=O)NCC[C@@H]2[C@H]3CN(C(=O)NC4CCOCC4)C[C@@H]23)cn1` [Example 32, (1R,5S,6s)-6-(2-((E)-3-(6-aminopyridin-3-yl)acrylamido)ethyl)-N-(tetrahydro-2H-pyran-4-yl)-3-azabicyclo[3.1.0]hexane-3-carboxamide], 0.01 to 0.49 µM; to `CCN(CC)C(=O)N1C[C@@H]2[C@@H](CCNC(=O)/C=C/c3ccc(N)nc3)[C@@H]2C1` [Example 33, (1R,5S,6s)-6-(2-((E)-3-(6-aminopyridin-3-yl)acrylamido)ethyl)-N,N-diethyl-3-azabicyclo[3.1.0]hexane-3-carboxamide], 0.01 to 0.49 µM. Same read-out and setting: to `Nc1ccc(/C=C/C(=O)NCC[C@@H]2[C@H]3CN(C(=O)OC4CCCC4)C[C@@H]23)cn1` [Example 34, (1R,5S,6s)-cyclopentyl 6-(2-((E)-3-(6-aminopyridin-3-yl)acrylamido)ethyl)-3-azabicyclo[3.1.0]hexane-3-carboxylate] belongs 0.01 to 0.49 µM.

Regarding `CC1(OC(=O)N2C[C@@H]3[C@@H](CCNC(=O)/C=C/c4ccncc4)[C@@H]3C2)COC1` [Example 35, (1R,5S,6s)-3-methyloxetan-3-yl 6-(2-((E)-3-(pyridin-4-yl)acrylamido)ethyl)-3-azabicyclo[3.1.0]hexane-3-carboxylate], the IC50 is 1 to 29 µM. Still for that read-out and setting: to `CC1(OC(=O)N2C[C@@H]3[C@@H](CCNC(=O)c4cc5cnccc5[nH]4)[C@@H]3C2)COC1` [Example 36, (1R,5S,6s)-3-methyloxetan-3-yl 6-(2-(1H-pyrrolo[3,2-c]pyridine-2-carboxamido)ethyl)-3-azabicyclo[3.1.0]hexane-3-carboxylate] belongs 0.01 to 0.49 µM; to `CC1(OC(=O)N2C[C@@H]3[C@@H](CCNC(=O)c4cc5cnccc5s4)[C@@H]3C2)COC1` [Example 37, (1R,5S,6s)-3-methyloxetan-3-yl 6-(2-(thieno[3,2-c]pyridine-2-carboxamido)ethyl)-3-azabicyclo[3.1.0]hexane-3-carboxylate], 0.01 to 0.49 µM; to `CC1(OC(=O)N2C[C@@H]3[C@@H](CCNC(=O)c4ccc5nccn5c4)[C@@H]3C2)COC1` [Example 38, (1R,5S,6s)-3-methyloxetan-3-yl 6-(2-(imidazo[1,2-a]pyridine-6-carboxamido)ethyl)-3-azabicyclo[3.1.0]hexane-3-carboxylate], 0.01 to 0.49 µM. Consider `Nc1ccc(/C=C/C(=O)NCC[C@@H]2[C@H]3CN(C(=O)N4CCCC4)C[C@@H]23)cn1` [Example 39, (E)-3-(6-aminopyridin-3-yl)-N-(2-((1R,5S,6s)-3-(pyrrolidine-1-carbonyl)-3-azabicyclo[3.1.0]hexan-6-yl)ethyl)acrylamide], for which the IC50 is 0.01 to 0.49 µM.

Consider `Nc1ccc(/C=C/C(=O)NCC[C@@H]2[C@H]3CN(C(=O)Oc4ccccc4)C[C@@H]23)cn1` [Example 40, (1R,5S,6s)-phenyl 6-(2-((E)-3-(6-aminopyridin-3-yl)acrylamido)ethyl)-3-azabicyclo[3.1.0]hexane-3-carboxylate], for which the IC50 was in the range of 0.01 to 0.49 µM. The same measure, in the same setting: then `Nc1ccc(/C=C/C(=O)NCC[C@@H]2[C@H]3CN(C(=O)OC4CCOCC4)C[C@@H]23)cn1` [Example 41, (1R,5S,6s)-tetrahydro-2H-pyran-4-yl 6-(2-((E)-3-(6-aminopyridin-3-yl)acrylamido)ethyl)-3-azabicyclo[3.1.0]hexane-3-carboxylate], with 0.01 to 0.49 µM; and `CC1(OC(=O)N2C[C@@H]3[C@@H](CCNC(=O)N4Cc5ccc(F)cc5C4)[C@@H]3C2)COC1` [Example 42, (1R,5S,6s)-3-methyloxetan-3-yl 6-(2-(5-fluoroisoindoline-2-carboxamido)ethyl)-3-azabicyclo[3.1.0]hexane-3-carboxylate], with 0.01 to 0.49 µM; and `CC1(OC(=O)N2C[C@@H]3[C@@H](CCNC(=O)c4cnc5nccn5c4)[C@@H]3C2)COC1` [Example 43, (1R,5S,6s)-3-methyloxetan-3-yl 6-(2-(imidazo[1,2-a]pyrimidine-6-carboxamido)ethyl)-3-azabicyclo[3.1.0]hexane-3-carboxylate], with 0.01 to 0.49 µM. Same read-out and setting: to `CC1(OC(=O)N2C[C@@H]3[C@@H](CCNC(=O)c4ccc5ncsc5c4)[C@@H]3C2)COC1` [Example 44, (1R,5S,6s)-3-methyloxetan-3-yl 6-(2-(benzo[d]thiazole-6-carboxamido)ethyl)-3-azabicyclo[3.1.0]hexane-3-carboxylate] belongs 0.01 to 0.49 µM; to `Nc1ccc(/C=C/C(=O)NCC[C@@H]2[C@H]3CN(S(=O)(=O)c4ccccc4)C[C@@H]23)cn1` [Example 45, (E)-3-(6-aminopyrdiin-3-yl)-N-(2-((1R,5S,6s)-3-(phenylsulfonyl)-3-azabicyclo[3.1.0]hexan-6-yl)ethyl)acrylamide], 0.01 to 0.49 µM; to `Nc1ccc(/C=C/C(=O)NCC[C@@H]2[C@H]3CN(S(=O)(=O)c4ccc(F)cc4)C[C@@H]23)cn1` [Example 46, (E)-3-(6-aminopyridin-3-yl)-N-(2-((1R,5S,6s)-3-((4-fluorophenyl)sulfonyl)-3-azabicyclo[3.1.0]hexan-6-yl)ethyl)acrylamide], 0.01 to 0.49 µM.

As for `Nc1ccc(/C=C/C(=O)NCC[C@@H]2[C@H]3CN(S(=O)(=O)C4CCOCC4)C[C@@H]23)cn1` [Example 47, (E)-3-(6-aminopyridin-3-yl)-N-(2-((1R,5S,6s)-3-((tetrahydro-2H-pyran-4-yl)sulfonyl)-3-azabicyclo[3.1.0]hexan-6-yl)ethyl)acrylamide], the half-inhibitory concentration (IC50) is 0.01 to 0.49 µM. On the same count and under the same terms, to `Nc1ccc(/C=C/C(=O)NCC[C@@H]2[C@H]3CN(S(=O)(=O)C4CCCC4)C[C@@H]23)cn1` [Example 48, (E)-3-(6-aminopyridin-3-yl)-N-(-2 ((1R,5S,6s)-3-(cyclopentylsulfonyl)-3-azabicyclo[3.1.0]hexan-6-yl)ethyl)acrylamide] belongs 0.01 to 0.49 µM.

For the compound `CC1(OC(=O)N2C[C@@H]3[C@@H](CCNC(=O)c4ccc5nc(N)sc5c4)[C@@H]3C2)COC1` [Example 49, (1R,5S,6s)-3-methyloxetan-3-yl 6-(2-(2-aminobenzo[d]thiazole-6-carboxamido)ethyl)-3-azabicyclo[3.1.0]hexane-3-carboxylate], the IC50 lay in the range of 1 to 29 µM. For the compound `CC1(OC(=O)N2C[C@@H]3[C@@H](CCNC(=O)c4cc(-c5cccnc5)on4)[C@@H]3C2)COC1` [Example 50, (1R,5S,6s)-3-methyloxetan-3-yl 6-(2-(5-(pyridin-3-yl)isoxazole-3-carboxamido)ethyl)-3-azabicyclo[3.1.0]hexane-3-carboxylate], the IC50 was in the range of 0.01 to 0.49 µM. In the case of `Nc1ccc(/C=C/C(=O)NCC[C@@H]2[C@H]3CN(C(=O)OC4Cc5ccccc5C4)C[C@@H]23)cn1` [Example 51, (1R,5S,6s)-2,3-dihydro-1H-inden-2-yl 6-(2-((E)-3-(6-aminopyridin-3-yl)acrylamido)ethyl)-3-azabicyclo[3.1.0]hexane-3-carboxylate], the IC50 was 0.01 to 0.49 µM. `CN1CCC(OC(=O)N2C[C@@H]3[C@@H](CCNC(=O)/C=C/c4ccc(N)nc4)[C@@H]3C2)CC1` [Example 52, (1R,5S,6s)-(1-methylpiperidin)-4-yl 6-(2-((E)-3-(6-aminopyridin-3-yl)acrylamido)ethyl)-3-azabicyclo[3.1.0]hexane-3-carboxylate]: the IC50 fell in the range of 0.01 to 0.49 µM.

With `CC1(OC(=O)N2C[C@@H]3[C@@H](CCNC(=O)/C=C/c4cnc(N)nc4)[C@@H]3C2)COC1` [Example 54, (1R,5S,6s)-3-methyloxetan-3-yl 6-(2-((E)-3-(2-aminopyrimidin-5-yl)acrylamido)ethyl)-3-azabicyclo[3.1.0]hexane-3-carboxylate], the concentration for half-maximal inhibition (IC50) lay in the range of 1 to 29 µM.

The assay is the same for the next values; noted with them: [HDB]; read-out: NAMPT IC50 (μM) [HDB].
With `O=C(NCC[C@@H]1[C@H]2CN(C(=O)c3ccccc3)C[C@@H]12)c1cc2ccncc2o1` [Example 30, N-(2-((1R,5S,6s)-3-benzoyl-3-azabicyclo[3.1.0]hexan-6-yl)ethyl)furo[2,3-c]pyridine-2-carboxamide], the IC50 fell in the range of 0.01 to 0.49 µM.
